How the values were obtained:
[1] = Plasma concentrations during escalating i.v. infusion in anesthetized rats; format: in vivo; conditions: anesthetized rat, FTY720 i.v.
Description: The cardiovascular effects of FTY720 and BAF312 were tested in anesthetized rats (180–200 g). In brief, male Sprague Dawley rats (Charles River) were anesthetized with Inactin (110 mg/kg i.p.) and a tracheotomy performed. The femoral artery and veins were catheterized for measurement of mean arterial pressure and heart rate, collection of blood samples at 20-min intervals (0.2 mL/sample), and for compound infusion/hydration as previously described, [24]; blood samples were also withdrawn in vehicle-treated control rats. FTY720, infused as a hydrochloride salt (0.1, 0.3, 1.0 mg/kg/20-min free base equivalent solubilized in a 100% PEG-400 vehicle), or BAF312 (0.5, 1.5, 5.0 mg/kg/20-min solubilized in a 100% PEG-400 vehicle) were administered via three escalating 20-min infusions (0.011 mL/min) followed by a 1-hr post-treatment period. A blood sample was withdrawn at 20, 40, 60, and 120-minutes for analysis of plasma concentrations of the parent compound, and in the case of FTY720, also the phosphorylated metabolite, (S)-FTY720-P. Statistical significance (p<0.05) was based on a t-test comparing treatment change from baseline (baseline was defined as the period from −30 to 0 minutes) vs. vehicle controls change from baseline at each timepoint without adjustment for multiple comparisons. In a separate group of anesthetized rats in which left ventricular (LV) contractility was also recorded with a Millar pressure transducer introduced into the left ventricle, BAF312 was infused in the same dosing regimen as the studies described above (0.5, 1.5, 5.0 mg/kg/20-min solubilized in a 100% PEG-400 vehicle) and effects on LV dP/dtmax were recorded.

[2] = Plasma concentrations in repeat-dosing study, satellite rats; format: in vivo, rat; conditions: for Plasma concentration: rat, mean±SEM; for Plasma concentration at Tmax / Terminal plasma concentration at Tmax: satellite rats; for Plasma concentration at Tmax: day 1; for Terminal plasma concentration at Tmax: last day of study
Description: Mean arterial pressure was assessed in conscious, freely moving male Sprague Dawley rats (n = 6–8/group; Charles River) instrumented with telemetry transmitters (DSI-Ponemah) and housed in metabolism cages as previously described, [26]. Tested compounds were solubilized in a 0.5% Methylcellulose/0.015% Tween 80 vehicle that was also dosed alone (p.o./QD, 5 mL/kg) as a control in the study. FTY720 was administered p.o. at 0.3, 1.0, 3.0, 10.0 mg/kg p.o. as a single dose or p.o./QD at 0.5, 1.5, and 5.0 mg/kg in a chronic study. BAF312 was administered p.o/QD at 0.3, 3.0, and 30 mg/kg as a single dose and in a chronic study. Mean arterial pressure and heart rate are shown as 1-hr and/or 24-hr mean values±SEM as described in the results. Blood samples in satellite rats were withdrawn at various timepoints as described in the results for analysis of plasma concentrations of the parent compound and, in the case of FTY720, also the phosphorylated metabolite, (S)-FTY720-P. Statistical analysis for the single-dose acute studies was based on one-way ANOVA to compare the treatment groups vs. vehicle for each time period after dosing (0–24 hrs, 24–48 hrs, and 48–72 hrs); statistical significance (p<0.05) was detected by Dunnett’s post-hoc test to compare treatment with vehicle controls. The statistical analysis in the chronic studies were based on one-way ANOVA with repeated measures to compare the treatment arms; statistical significance (p<0.05) was detected by Dunnett’s post-hoc test to compare treatment with vehicle controls.

[3] = Heart tissue concentrations at the end of the repeat-dosing study; format: in vivo; conditions: rat
Description: In the repeat-dosing study with FTY720 (0.5, 1.5, and 5.0 mg/kg/d), plasma concentrations were also determined ( Table 3 ).

CCCCCCCCc1ccc(CC[C@](N)(CO)COP(=O)(O)O)cc1 [FTY720-P]
Plasma concentration ([1]; end of 0.1 mg/kg/20 min infusion, listed as phosphorylated FTY720, 0.1 mg/kg): 285 ± 87 nM | Plasma concentration ([1]; end of 0.3 mg/kg/20 min infusion, listed as phosphorylated FTY720, 0.3 mg/kg): 683 ± 214 nM | Plasma concentration ([1]; end of 1.0 mg/kg/20 min infusion, listed as phosphorylated FTY720, 1 mg/kg): 908 ± 264 nM | Plasma concentration ([1]; end of 60-min post-treatment period, listed as phosphorylated FTY720): 211 ± 17 nM | Plasma concentration ([2]; FTY720 0.5 mg/kg/d p.o., Day 1, 4 hr post-dose): 46 ± 5 nM | Plasma concentration ([2]; FTY720 0.5 mg/kg/d p.o., Day 1, 8 hr post-dose): 103 ± 24 nM | Plasma concentration ([2]; FTY720 0.5 mg/kg/d p.o., Day 1, 24 hr post-dose): 65 ± 23 nM | Plasma concentration ([2]; FTY720 0.5 mg/kg/d p.o., Terminal (last day), 0-hr): 141 ± 31 nM | Plasma concentration ([2]; FTY720 0.5 mg/kg/d p.o., Terminal (last day), 4 hr post-dose): 229 ± 40 nM | Plasma concentration ([2]; FTY720 0.5 mg/kg/d p.o., Terminal (last day), 8 hr post-dose): 478 ± 303 nM | Plasma concentration ([2]; FTY720 0.5 mg/kg/d p.o., Terminal (last day), 24 hr post-dose): 546 ± 359 nM | Plasma concentration ([2]; FTY720 1.5 mg/kg/d p.o., Day 1, 4 hr post-dose): 231 ± 1 nM | Plasma concentration ([2]; FTY720 1.5 mg/kg/d p.o., Day 1, 8 hr post-dose): 275 ± 55 nM | Plasma concentration ([2]; FTY720 1.5 mg/kg/d p.o., Day 1, 24 hr post-dose): 264 ± 79 nM | Plasma concentration ([2]; FTY720 1.5 mg/kg/d p.o., Terminal (last day), 0-hr): 690 ± 136 nM | Plasma concentration ([2]; FTY720 1.5 mg/kg/d p.o., Terminal (last day), 4 hr post-dose): 800 ± 77 nM | Plasma concentration ([2]; FTY720 1.5 mg/kg/d p.o., Terminal (last day), 8 hr post-dose): 647 ± 121 nM | Plasma concentration ([2]; FTY720 1.5 mg/kg/d p.o., Terminal (last day), 24 hr post-dose): 560 ± 70 nM | Plasma concentration ([2]; FTY720 5.0 mg/kg/d p.o., Day 1, 4 hr post-dose): 506 ± 74 nM | Plasma concentration ([2]; FTY720 5.0 mg/kg/d p.o., Day 1, 8 hr post-dose): 696 ± 279 nM | Plasma concentration ([2]; FTY720 5.0 mg/kg/d p.o., Day 1, 24 hr post-dose): 773 ± 55 nM | Plasma concentration ([2]; FTY720 5.0 mg/kg/d p.o., Terminal (last day), 0-hr): 2344 ± 356 nM | Plasma concentration ([2]; FTY720 5.0 mg/kg/d p.o., Terminal (last day), 4 hr post-dose): 2913 ± 238 nM | Plasma concentration ([2]; FTY720 5.0 mg/kg/d p.o., Terminal (last day), 8 hr post-dose): 1508 ± 316 nM | Plasma concentration ([2]; FTY720 5.0 mg/kg/d p.o., Terminal (last day), 24 hr post-dose): 1561 ± 230 nM | Plasma concentration at Tmax ([2]; FTY720 0.5 mg/kg/d p.o.): 103 ± 24 nM | Terminal plasma concentration at Tmax ([2]; FTY720 0.5 mg/kg/d p.o.): 546 ± 358 nM | Plasma concentration at Tmax ([2]; FTY720 1.5 mg/kg/d p.o.): 275 ± 55 nM | Terminal plasma concentration at Tmax ([2]; FTY720 1.5 mg/kg/d p.o.): 800 ± 77 nM | Plasma concentration at Tmax ([2]; FTY720 5.0 mg/kg/d p.o.): 773 ± 55 nM | Terminal plasma concentration at Tmax ([2]; FTY720 5.0 mg/kg/d p.o.): 2913 ± 92 nM | mean tissue concentration in heart ([3]; FTY720 0.5 mg/kg/d p.o.): 513 ng/g | mean tissue concentration in heart ([3]; FTY720 1.5 mg/kg/d p.o.): 757 ng/g | mean tissue concentration in heart ([3]; FTY720 5.0 mg/kg/d p.o.): 3799 ng/g

Source: publication PMC3532212 (PLoS ONE, 2012)
